# Data: patent US20120258944A1, “ANTIOXIDANTS FOR USE IN THERAPY” (priority 2009, published 2012)
# What was measured:
# human neutrophils = assay: Luminol enhanced chemiluminescence, total ROS production in neutrophils; type: cell-based
# Excerpt: We investigated the capacity of the material to quench ROS produced by freshly isolated human neutrophils or THP-1 cells (human acute monocytic leukemia cell line) stimulated with PMA (Phorbol Myristate Acetate). The antioxidant capacity of selenide 1 was again compared to those of Trolox, a water soluble derivative of vitamin E, which is commonly used in biological and biochemical applications to reduce oxidative stress or damage.
# Neutrophils were isolated from heparinized blood of apparently healthy blood donors (Academic Hospital, Uppsala, Sweden) following a routine dextran sedimentation method essentially as described by Halansson and Venge (Scandinavian Journal of Immunology 1980, 11, 271-282). To each of three test tubes containing 5 ml heparinized blood, dextran (T500, Pharmacia, Uppsala, Sweden) was added (final concentration 1%) and the sedimentation was allowed to proceed for 30 min at room temperature. […] Finally, the pellet was resuspended in Gey's buffer and the average content of neutrophils (approximately 90%) was calculated using Türks staining and hemocytometer method. […]
# The generation of oxygen free radicals over time from neutrophils was monitored for 40 minutes in 24 well white optiplates (Greiner) using a Wallac Victor […] in the luminescence mode. […]
# kidney slice = assay: Organ model TBARS experiment (TBA-MDA assay) in kidney slices
# [1] = ABTS radical cation assay (TEAC) in aqueous PBS buffer; conditions: 6.08 micro-M
# Experimental: In order to investigate its aqueous phase performance, we thought that it would be interesting to determine its Trolox Equivalent Antioxidant Capacity (TEAC) (Free Rad. Biol. Med. 1999, 26, 1231-1237) which has been used to quantify the antioxidant activity of biological fluids, extracts and pure compounds. The TEAC value is defined as the concentration of Trolox which has an equivalent antioxidant potential as a 1 mM solution of the compound under investigation (Free Rad. Biol. Med. 1996, 20, 933-956).
# A 2,2′-azinobis(3-ethylbenzothiazoline-6 sulphonic acid radical cation (ABTS•+) assay was used to determine relative TEAC values. To a preformed solution of ABTS•+ in PBS buffer, pH 7.4, with an absorbance slightly above 0.7 were added various amounts (3-30 microM) of organoselenium compound 1, Trolox, sodium ascorbate and N-acetylcysteine. The absorbance at 734 inn was recorded immediately after mixing and then every minute for the next 8 minutes.
# Antioxidant activity as determined by the capacity of the antioxidant to decolorize the ABTS^+ radical cation was determined essentially as described in the literature (Acc. Chem. Res. 1986, 19, 194-201). […] In a typical experiment, the antioxidant (1.52 micro-L of a 3.00 mM solution in MeOH or water; final concentration=6.08 micro-M) was syringed into 0.750 mL of the ABTS^+ radical cation solution. After initial mixing, the absorbance was recorded every minute for the next eight minutes.
# [2] = tested on: MG-63, HEK-293, SHSY-5y, MRC-5 and CaCo-2-cells; assay: Alamar Blue cell viability/proliferation assay; type: cell-based, human
# Excerpt: Alamar Blue is a non-toxic metabolic indicator for viable cells. Following uptake, the dye becomes reduced and causes a change in the colour of the cell. The colour change correlates reasonably well with the number of living cells in the sample.
# Cells w/o antioxidant were used as controls.
# Alamar Blue is a non-toxic metabolic indicator for viable cells. Upon uptake into the cell the dye becomes reduced and changes colour. The colour change correlates approximately with the number of living cells in the sample.
# [3] = tested on: human umbilical vein endothelial cells (HUVEC); assay: Visual evaluation of HUVECs under the microscope (dislodging from the surface); conditions: human, 24 h
# Experimental: Cells were harvested and resuspended in supplemented medium 200 without phenol red. 50 000 cells were added in duplicates to 96-well plates. The compounds were tested on HUVECs according to the following concentrations.
# The compounds were diluted in Medium 200 from the 0.1M stock solution. The toxic effects of the compounds were tested after 24 hrs, 48 hrs and 72 hrs.
# By visually looking at the cells under the microscope and estimating the dislodging from the surface, the state of the cells was evaluated.
compound,measurement,setting,value
CC1Cc2cc(O)ccc2[Se]1 (stereo not drawn) [Compound 1],effect on ROS production in neutrophils,"human neutrophils; 20, 40, 60 micro-M, FIG. 22","clear, dose dependent, quenching/inhibiting effect"
same,quenching of ROS from neutrophils compared with Trolox,human neutrophils; 20 micro-M each,considerably more effective than Trolox
same,potency as inhibitor of TBARS production compared with references,kidney slice,more potent inhibitors of TBARS production than Trolox and N-acetylcysteine
same,concentration able to inhibit 50% of the TBARS formation in the control incubation,kidney slice; re-oxygenation after Argon,sub-micromolar
same,TEAC value,"[1]; PBS buffer pH 7.4, after 5 min",1.6
same,number of ABTS radicals quenched by each molecule of the antioxidant,"[1]; PBS buffer pH 7.4, versus reference antioxidants",clearly outperformed both sodium ascorbate and Trolox
same,cell growth (Alamar Blue),[2],normal cell growth patterns
same,concentration until which no sign of cell death or decreased proliferation,[2]; human,235 micro-M
same,concentration at which cells were affected (visual),[3],500 µM
